Laboratory results published in PubChem BioAssay (NCI).
Values joined by “and” are separate entries in the source; they are usually repeats but may differ in a detail not shown here. Equal entries are not always repeated.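 Step 1: Grow cells in 96-well plates. Step 2: Expose to compound for 48 hours at 5 concentrations. Step 3: Interpolate endpoints linearly; if unreached, use highest concentration. GI50 = concentration required for 50% inhibition of growth. At the TGI there is no net growth.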

Assays:
Assay in all cases: inhibition of tumour cell growth, NCI panel, 48 h
MOLT-4 leukemia = system: MOLT-4 leukemia
ACHN renal = system: ACHN renal
SF-295 CNS = system: SF-295 CNS
HCT-116 colon = system: HCT-116 colon
SK-MEL-28 melanoma = system: SK-MEL-28 melanoma
SK-MEL-2 melanoma = system: SK-MEL-2 melanoma
IGROV1 ovarian = system: IGROV1 ovarian
SNB-19 CNS = system: SNB-19 CNS
U251 CNS = system: U251 CNS
NCI-H226 lung = system: NCI-H226 lung

Row | SMILES | GI50 (MOLT-4 leukemia) | TGI (MOLT-4 leukemia) [µM] | GI50 (ACHN renal) [µM] | TGI (ACHN renal) [µM] | GI50 (SF-295 CNS) [µM] | TGI (SF-295 CNS) [µM] | GI50 (HCT-116 colon) [µM] | TGI (HCT-116 colon) [µM] | GI50 (SK-MEL-28 melanoma) [µM] | TGI (SK-MEL-28 melanoma) [µM] | GI50 (SK-MEL-2 melanoma) [µM] | TGI (SK-MEL-2 melanoma) [µM] | GI50 (IGROV1 ovarian) [µM] | TGI (IGROV1 ovarian) [µM] | GI50 (SNB-19 CNS) [µM] | TGI (SNB-19 CNS) [µM] | GI50 (U251 CNS) [µM] | TGI (U251 CNS) [µM] | GI50 (NCI-H226 lung) [µM] | TGI (NCI-H226 lung) [µM]
1 | CCCCNc1nc(NC(C)(C)C)nc(NC(C)(C)C)n1 | 5.69 µM | > 100 | 6.41 | > 100 | 6.03 | > 100 | 2.44 | 29.6 | 30 | > 100 | 15.4 | > 100 | 16.3 | > 100 | 17.6 | > 100 | 5.92 | 36.7 | 6.44 | > 100
2 | COc1cc(-c2cnn(C)c2)ccc1Nc1ncc2ccnc(N[C@@H](C)C(C)(C)C)c2n1 | > 69 µM | > 100 | 4.29 | > 100 | > 63.3 | > 100 | 0.467 | > 100 | > 100 | > 100 | > 100 | > 100 | > 100 | > 100 | > 82.3 | > 100 | > 55.8 | > 100 | > 83.3 | > 100
3 | CC(=O)O/N=C/c1ncccc1CO |  | > 100 |  | > 100 |  | > 100 |  | > 100 |  | > 100 |  | > 100 |  | > 100 |  | > 100 |  | > 100 |  | > 100
4 | CN1CCN(Cc2ccc(NC(=O)c3cncc(C#Cc4cnc(N)c5ccc(F)cc45)c3)cc2C(F)(F)F)CC1 | 0.974 µM | 6.19 | 1.02 | 4.36 | 2.9 | 7.35 | 1 | 5.04 | 2.52 | 7.11 | 0.808 | 2.39 | 0.677 | 4.08 | 4.39 | 8.96 | 2.14 | 6.56 | 1.05 | 6.16
5 | Cc1cc2nc3c(=O)n(C)c(=O)nc-3n(-c3ccc(Cl)cc3)c2cc1C |  | 32.8 |  | 24.7 |  | 26.1 |  | 33.6 |  | 33.4 |  | 34.9 |  | 38.8 |  | 47 |  | 29.9 |  | 37.6
6 | c1ccc2c(c1)[I+]c1ccccc1-2 | > 50 µM | > 50 | > 50 | > 50 | 35 | > 50 | 38.4 | > 50 | > 50 | > 50 | > 50 | > 50 | > 50 | > 50 | > 50 | > 50 | 25.5 | > 50 | > 50 | > 50
7 | COC1=CC23C=CC1[C@@H](c1ccccc1)C2=C(C)C(=O)N3C(=O)NC1CCCCC1 (some centres undefined) |  | 45.9 |  | > 100 |  | 53.7 |  | 28.3 |  | 42.2 |  | 39.5 |  | > 100 |  | > 100 |  | 35.4 |  | 46.6
8 | CC(C)=CC(C(O)c1ccccc1)S(=O)(=O)c1nccn1C (centres undefined) |  | > 100 |  | > 100 |  | > 100 |  | > 100 |  | > 100 |  | > 100 |  | > 100 |  | > 100 |  | > 100 |  | > 100
9 | CC(C)c1ccc(Cc2cnc(NC(=O)c3cc(Br)cs3)s2)cc1 | 7.59 µM | > 100 | 4.64 | > 100 | 2 | 19.6 | 2.98 | > 100 | 5.41 | > 100 | 7.43 | 64.4 | 3.7 | > 100 | 5.02 | > 100 | 3.42 | > 100 | 5.68 | > 100
10 | C=CCNC(=S)N1CC(C)C(=O)Nc2ccccc21 (centres undefined) |  | > 100 |  | > 100 |  | > 100 |  | > 100 |  | > 100 |  | > 100 |  | > 100 |  | > 100 |  | > 100 |  | > 100
11 | O=C1C=C(c2c(O)ccc3ccccc23)c2ccccc2C1=O |  | 4.41 |  | 11.7 |  | 12.4 |  | 8.06 |  | > 50 |  | 15.8 |  | 9.01 |  | 22.4 |  | 5.13 |  | 27.9
12 | CCOc1ccc(/C=C/C(=O)c2ccccc2)cc1 | 18.6 µM | 94.9 | 18.1 | 34.9 | 16.8 | 35 | 12.9 | 27.4 | 19.8 | 39.6 | 20.4 | 38.2 | 16.3 | 39.7 | 16.8 | 34 | 7.19 | 20.7 | 24.7 | 75.2
13 | COc1ccc2c(c1)C(=O)CC(N)C2 (centres undefined) |  | > 100 |  | > 100 |  | > 100 |  | > 100 |  | > 100 |  | > 100 |  | > 100 |  | > 100 |  | > 100 |  | > 100
14 | COc1ccc(NC(=O)C2C(=O)N(c3ccc(OC)cc3)C(=O)/C2=N/O)cc1 (centres undefined) |  | > 100 |  | 43.2 |  | 52.5 |  | 38.3 |  | > 96.8 |  | > 86.8 |  | > 80.7 |  | > 70.5 |  | 42.9 |  | 55.7
15 | NC(N)=N/N=C(/c1nc2ccc([N+](=O)[O-])cc2[nH]c1=O)C(O)c1ccco1 (centres undefined) |  | > 100 |  | > 100 |  | > 100 |  | > 100 |  | > 100 |  | > 100 |  | > 100 |  | > 100 |  | > 100 |  | > 100
16 | O=c1ccn(C2OC(CO)C(O)C2O)c(=O)[nH]1 (centres undefined) | 832 µM and > 10 µM | > 1000 | > 1000 | > 1000 | > 1000 | > 1000 | > 1000 | > 1000 | > 1000 | > 1000 | > 1000 | > 1000 | > 1000 | > 1000 | > 1000 | > 1000 | > 1000 | > 1000 |  | > 1000
